The source of these data is US20170157192A1, “USE OF THE CHINESE MEDICINE COMPOSITION AND DIANXIANNING IN THE PREPARATION OF A MEDICAMENT FOR PREVENTING OR TREATING ALZHEIMER'S DISEASES” (Lanzhou University, priority 2014, published 2017).

Series [1] deals with transgenic C. elegans strain CL4176 expressing human Aβ. Briefly: Aβ-induced paralysis in transgenic C. elegans strain CL4176. The class given is in vivo, Caenorhabditis elegans. Particulars: Example 2, FIG. 1, dose-dependent. The text has this: The present invention employed the transgenic C. elegans strain CL4176 as a pathological model to evaluate the effect of the Chinese medicine and DXN on preventing or treating AD. The principle of Aβ theory of AD is based on that Aβ aggregates in the cerebral cortex and hippocampus and subsequently forms senile plaques (SP), which is one of the most major pathological features of AD. Toxic Aβ can effectively weaken the structure and function of synapses, and cause memory impairment on the AD patients. Transgenic C. elegans strain CL4176 which expresses the human Aβ species in the muscle tissue that can induce Aβ-dependent paralysis at 25° C. was used in the present invention. Aβ aggregates in the muscle tissue, eventually resulting in the paralysis of CL4176. The medicament acts on C. elegans strain CL4176.
(1) C. elegans CL4176 is purchased from Caenorhabditis Genetics Center; which is a transgenic strain and muscle-specific expression of human Aβ can be induced at 25° C., and Aβ is aggregated in muscle tissue, resulting in the paralysis of C. elegans. CL4176 worm was used in the invention as a pathological model to screen and evaluate the anti-AD actions of the Chinese medicine compositions and DXN.
The synchronized C. elegans eggs were placed onto solid NGM coated with OP50 and containing different concentration of Memantine Hydrochloride. The blank control is a NMG medium coated with OP50 and added with the same volume of ddH2O to replace the Memantine Hydrochloride. The worms were cultured at 16° C. for 3 days to L3 larvae (about 60 worms per plate). The results are presented as the average of three biological replicates.
In order to induce the Aβ expression, the culture temperature of transgenic L3 larvae C. elegans CL4176 was shifted from 16° C. to 25° C. for 34 h. Then paralysis individuals were counted under a dissecting stereo microscope at 2 h intervals until all worms became paralyzed.
The synchronized C. elegans eggs were placed onto solid NGM coated with OP50 and containing working concentration of the Chinese medicine compositions. […]

Another series relates to C. elegans CL4176. Put plainly: Toxicity on growth and development (body length) of C. elegans. As to conditions: Example 2, FIG. 1. The class given is in vivo, Caenorhabditis elegans. As for the experimental part: C. elegans are sensitive to environmental changes, and drug toxicity can be accurately evaluated by using C. elegans. The body length is one of the most commonly used indictors of developmental toxicity.
After the end of paralysis experiment, worms were immediately placed at 50° C. for 15 min to straighten the body of every worm. The worms were observed and photographed under a microscope, and measured the length of every worm using MvImage system.

Series [2] relates to transgenic C. elegans strain CL4176 expressing human Aβ. Particulars: 2.16 mg/mL; it has been reported; cited from earlier work.

Where a name gives a salt, the structure may show the parent alone.

In the case of `CC12CC3CC(C)(C1)CC(N)(C3)C2` [Menantine Hydrochloride, 1-amino-3,5-dimethyl amantadine hydrochloride], the “delay of Aβ-induced paralysis of CL4176” value in series [1] (4.32 μg/mL in NGM), in series [1] (0.86m/mL in NGM) and in series [1] (21.58m/mL in NGM) was “significantly delayed the paralysis” each time. In addition, the “inhibition of development of C. elegans” value in the series on C. elegans CL4176 (107.88 m/mL in NGM) and in the series on C. elegans CL4176 (215.76 m/mL in NGM) was “strongly inhibit the development” each time. Besides, in series [2], the “delay of Aβ-induced paralysis in transgenic CL4176 (reported)” value was “significantly delay Aβ-induced paralysis”.
